Measured values taken from US9981975B2, “Pyrrolotriazine compounds as tam inhibitors” (Incyte Corporation, priority 2016, dated 2018).

Assays:
Type in all cases: biochemical
phosphor-Axl = phosphor-Axl (Homo sapiens (Human), UniProt P30530); test: TAM Enzymatic Assay (HTRF), Axl; details: recombinant autophosphorylated Axl, 60 min, room temperature
c-Mer = c-Mer (Homo sapiens (Human), UniProt Q12866); test: TAM Enzymatic Assay (HTRF), Mer; details: 60 min, room temperature
Summary of the method: (§1)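 Reactions ran 60 min at room temperature, protected from light, started by substrate addition to enzyme plus DMSO compound, in pH 7.5 HEPES buffer with 10 mM MgCl2, 1 mM EGTA, 0.01% NP-40, 2 mM DTT.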

Tyro3 = Tyro3 (Homo sapiens (Human), UniProt Q06418); test: TAM Enzymatic Assay (HTRF), Tyro3; details: Tyro3, 60 min, room temperature
Tyro3, sequence (Q06418 41-890): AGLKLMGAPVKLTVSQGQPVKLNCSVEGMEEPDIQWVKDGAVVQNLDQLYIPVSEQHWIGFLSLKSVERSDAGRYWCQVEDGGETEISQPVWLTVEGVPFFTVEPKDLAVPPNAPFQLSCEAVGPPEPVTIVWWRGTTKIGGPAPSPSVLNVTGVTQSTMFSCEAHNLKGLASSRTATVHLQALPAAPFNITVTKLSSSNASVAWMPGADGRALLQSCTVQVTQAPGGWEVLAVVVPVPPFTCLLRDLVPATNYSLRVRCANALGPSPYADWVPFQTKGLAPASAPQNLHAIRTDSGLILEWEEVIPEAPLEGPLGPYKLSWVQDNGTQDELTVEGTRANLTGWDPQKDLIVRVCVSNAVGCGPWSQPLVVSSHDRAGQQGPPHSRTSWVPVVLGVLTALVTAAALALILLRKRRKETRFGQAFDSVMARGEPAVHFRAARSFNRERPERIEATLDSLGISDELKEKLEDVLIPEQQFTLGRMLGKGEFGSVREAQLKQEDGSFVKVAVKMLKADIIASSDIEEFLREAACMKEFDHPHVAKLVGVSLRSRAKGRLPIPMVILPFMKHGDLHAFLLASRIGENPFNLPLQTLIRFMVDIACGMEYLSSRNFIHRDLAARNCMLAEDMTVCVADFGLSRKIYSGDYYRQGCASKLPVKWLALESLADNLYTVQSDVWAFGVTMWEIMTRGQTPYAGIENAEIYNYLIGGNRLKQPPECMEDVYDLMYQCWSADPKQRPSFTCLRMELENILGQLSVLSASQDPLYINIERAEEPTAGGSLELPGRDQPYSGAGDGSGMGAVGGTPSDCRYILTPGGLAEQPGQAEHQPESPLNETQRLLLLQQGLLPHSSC
Summary of the method: as §1

phosphor-Axl, sequence (P30530 26-894): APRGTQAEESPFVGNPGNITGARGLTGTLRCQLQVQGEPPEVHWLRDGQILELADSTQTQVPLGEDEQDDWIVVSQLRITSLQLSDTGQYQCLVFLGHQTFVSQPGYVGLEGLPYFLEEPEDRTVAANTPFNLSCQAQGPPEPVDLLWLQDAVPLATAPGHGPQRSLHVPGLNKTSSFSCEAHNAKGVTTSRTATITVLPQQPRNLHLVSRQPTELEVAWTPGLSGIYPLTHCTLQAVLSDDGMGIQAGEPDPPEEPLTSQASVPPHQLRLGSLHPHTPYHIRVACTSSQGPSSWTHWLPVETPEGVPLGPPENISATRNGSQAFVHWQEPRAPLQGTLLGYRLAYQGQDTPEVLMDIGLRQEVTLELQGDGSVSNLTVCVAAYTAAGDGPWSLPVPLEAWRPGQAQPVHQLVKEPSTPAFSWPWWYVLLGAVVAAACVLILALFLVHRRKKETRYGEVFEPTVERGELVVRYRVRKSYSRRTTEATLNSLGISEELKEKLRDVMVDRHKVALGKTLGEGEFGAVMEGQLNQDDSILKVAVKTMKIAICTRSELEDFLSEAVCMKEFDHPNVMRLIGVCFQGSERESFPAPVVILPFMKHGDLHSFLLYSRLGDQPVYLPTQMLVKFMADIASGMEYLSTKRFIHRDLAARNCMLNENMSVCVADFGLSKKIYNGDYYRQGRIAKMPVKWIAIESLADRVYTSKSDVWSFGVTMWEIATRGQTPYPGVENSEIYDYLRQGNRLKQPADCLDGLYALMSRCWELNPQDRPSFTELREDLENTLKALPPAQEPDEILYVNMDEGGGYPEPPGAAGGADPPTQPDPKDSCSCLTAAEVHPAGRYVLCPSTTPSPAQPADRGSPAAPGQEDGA
c-Mer, sequence (Q12866 21-999): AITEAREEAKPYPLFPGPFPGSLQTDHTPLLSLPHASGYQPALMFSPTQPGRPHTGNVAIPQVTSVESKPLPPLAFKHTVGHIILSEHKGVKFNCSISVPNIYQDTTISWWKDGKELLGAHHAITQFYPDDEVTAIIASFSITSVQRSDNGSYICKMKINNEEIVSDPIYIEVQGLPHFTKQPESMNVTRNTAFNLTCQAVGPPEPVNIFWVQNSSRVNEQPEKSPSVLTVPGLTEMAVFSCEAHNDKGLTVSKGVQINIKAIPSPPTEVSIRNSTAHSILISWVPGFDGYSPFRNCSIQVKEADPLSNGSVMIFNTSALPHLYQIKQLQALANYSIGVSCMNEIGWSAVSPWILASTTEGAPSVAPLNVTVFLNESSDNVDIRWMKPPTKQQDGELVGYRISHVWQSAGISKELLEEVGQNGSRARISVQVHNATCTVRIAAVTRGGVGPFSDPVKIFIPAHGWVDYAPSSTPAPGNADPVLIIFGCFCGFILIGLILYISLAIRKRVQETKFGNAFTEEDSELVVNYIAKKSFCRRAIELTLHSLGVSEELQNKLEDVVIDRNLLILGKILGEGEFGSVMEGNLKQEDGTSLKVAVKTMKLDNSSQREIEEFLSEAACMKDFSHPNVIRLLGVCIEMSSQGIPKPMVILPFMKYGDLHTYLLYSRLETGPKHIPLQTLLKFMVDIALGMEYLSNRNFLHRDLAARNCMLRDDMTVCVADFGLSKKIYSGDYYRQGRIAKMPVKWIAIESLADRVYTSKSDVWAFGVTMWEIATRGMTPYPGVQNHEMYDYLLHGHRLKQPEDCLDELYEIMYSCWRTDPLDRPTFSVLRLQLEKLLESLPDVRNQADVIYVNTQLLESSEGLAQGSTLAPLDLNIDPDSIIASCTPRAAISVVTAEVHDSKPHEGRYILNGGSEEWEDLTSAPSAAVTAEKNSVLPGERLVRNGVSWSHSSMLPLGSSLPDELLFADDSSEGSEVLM

| Structure (SMILES) | IC50 (phosphor-Axl) [nM] | IC50 (c-Mer) [nM] | IC50 (Tyro3) [nM] |
| --- | --- | --- | --- |
| Nc1ncnn2c(C3CCOCC3)cc(-c3ccc(NC(=O)c4cccn(-c5ccc(F)cc5)c4=O)cc3F)c12 [Example 16, N-{4-[4-Amino-7-(tetrahydro-2H-pyran-4-yl)pyrrolo[2,1-f][1,2,4]triazin-5-yl]-3-fluorophenyl}-1-(4-fluorophenyl)-2-oxo-1,2-dihydropyridine-3-carboxamide] | ≤ 5 | ≤ 5 | 10 to 100 |
| Nc1ncnn2c(C3CCNCC3)cc(-c3ccc(NC(=O)c4cccn(-c5ccccc5)c4=O)cc3F)c12 [Example 34, N-[4-(4-Amino-7-piperidin-4-ylpyrrolo[2,1-f][1,2,4]triazin-5-yl)-3-fluorophenyl]-2-oxo-1-phenyl-1,2-dihydropyridine-3-carboxamide] | ≤ 5 | ≤ 5 | 10 to 100 |
| COC(=O)N1CCC(c2cc(-c3ccc(NC(=O)c4cccn(-c5ccc(F)cc5)c4=O)cc3F)c3c(N)ncnn23)CC1 [Example 39, Methyl 4-{4-amino-5-[2-fluoro-4-({[1-(4-fluorophenyl)-2-oxo-1,2-dihydropyridin-3-yl]carbonyl}amino)phenyl]pyrrolo[2,1-f][1,2,4]triazin-7-yl}piperidine-1-carboxylate] | ≤ 5 | ≤ 5 | 10 to 100 |
| CN(C)C(=O)N1CCC(c2cc(-c3ccc(NC(=O)c4cccn(-c5ccc(F)cc5)c4=O)cc3F)c3c(N)ncnn23)CC1 [Example 47, N-[4-(4-Amino-7-{1-[(dimethylamino)carbonyl]piperidin-4-yl}pyrrolo[2,1-f][1,2,4]triazin-5-yl)-3-fluorophenyl]-1-(4-fluorophenyl)-2-oxo-1,2-dihydropyridine-3-carboxamide] | ≤ 5 | ≤ 5 | 10 to 100 |
| Nc1ncnn2c(C3CCNCC3)cc(-c3ccc(NC(=O)c4cccn(-c5ccc(F)cc5)c4=O)cc3F)c12 [Example 35, N-[4-(4-Amino-7-piperidin-4-ylpyrrolo[2,1-f][1,2,4]triazin-5-yl)-3-fluorophenyl]-1-(4-fluorophenyl)-2-oxo-1,2-dihydropyridine-3-carboxamide] | ≤ 5 | ≤ 5 | 5 to 10 |
| Nc1ncnn2c1c(-c1ccc(NC(=O)c3cccn(-c4ccc(F)cc4)c3=O)cc1F)cc2[C@H]1CC[C@@H](O)CC1 [Example 19, N-{4-[4-Amino-7-(cis-4-hydroxycyclohexyl)pyrrolo[2,1-f][1,2,4]triazin-5-yl]-3-fluorophenyl}-1-(4-fluorophenyl)-2-oxo-1,2-dihydropyridine-3-carboxamide] | ≤ 5 | ≤ 5 | ≤ 5 |
| CN1CCC(c2cc(-c3ccc(NC(=O)c4cccn(-c5ccc(F)cc5)c4=O)cc3F)c3c(N)ncnn23)CC1 [Example 23, N-{4-[4-Amino-7-(1-methylpiperidin-4-yl)pyrrolo[2,1-f][1,2,4]triazin-5-yl]-3-fluorophenyl}-1-(4-fluorophenyl)-2-oxo-1,2-dihydropyridine-3-carboxamide] | ≤ 5 | ≤ 5 | 10 to 100 |
| CN(C)C(=O)N1CCC(c2cc(-c3ccc(NC(=O)c4cccn(-c5ccccc5)c4=O)cc3)c3c(N)ncnn23)CC1 [Example 44, N-[4-(4-Amino-7-{1-[(dimethylamino)carbonyl]piperidin-4-yl}pyrrolo[2,1-f][1,2,4]triazin-5-yl)phenyl]-2-oxo-1-phenyl-1,2-dihydropyridine-3-carboxamide] | ≤ 5 | ≤ 5 | > 100 |
| CCc1cc(-c2ccc(NC(=O)c3cccn(Cc4ccccc4)c3=O)cc2)c2c(N)ncnn12 [Example 5, N-[4-(4-Amino-7-ethylpyrrolo[2,1-f][1,2,4]triazin-5-yl)phenyl]-1-benzyl-2-oxo-1,2-dihydropyridine-3-carboxamide] | > 100 | > 100 | > 100 |
| N#C[C@H]1CC[C@@H](c2cc(-c3ccc(NC(=O)c4cccn(-c5ccccc5)c4=O)cc3)c3c(N)ncnn32)CC1 [Example 28, N-{4-[4-Amino-7-(cis-4-cyanocyclohexyl)pyrrolo[2,1-f][1,2,4]triazin-5-yl]phenyl}-2-oxo-1-phenyl-1,2-dihydropyridine-3-carboxamide] | ≤ 5 | ≤ 5 | > 100 |
| CN(C)C(=O)N1CCC(c2cc(-c3ccc(NC(=O)c4cccn(-c5ccccc5)c4=O)cc3F)c3c(N)ncnn23)CC1 [Example 46, N-[4-(4-Amino-7-{1-[(dimethylamino)carbonyl]piperidin-4-yl}pyrrolo[2,1-f][1,2,4]triazin-5-yl)-3-fluorophenyl]-2-oxo-1-phenyl-1,2-dihydropyridine-3-carboxamide] | ≤ 5 | ≤ 5 | 10 to 100 |
| CS(=O)(=O)N1CCC(c2cc(-c3ccc(NC(=O)c4cccn(-c5ccc(F)cc5)c4=O)cc3)c3c(N)ncnn23)CC1 [Example 41, N-(4-{4-Amino-7-[1-(methylsulfonyl)piperidin-4-yl]pyrrolo[2,1-f][1,2,4]triazin-5-yl}phenyl)-1-(4-fluorophenyl)-2-oxo-1,2-dihydropyridine-3-carboxamide] | ≤ 5 | ≤ 5 | 10 to 100 |
| CC(C)n1cc(C(=O)Nc2ccc(-c3cc(C4CCN(C(=O)N(C)C)CC4)n4ncnc(N)c34)cc2)c(=O)n(-c2ccccc2)c1=O [Example 61, N-(4-(4-Amino-7-(1-(dimethylcarbamoyl)piperidin-4-yl)pyrrolo[1,2-f][1,2,4]triazin-5-yl)phenyl)-1-isopropyl-2,4-dioxo-3-phenyl-1,2,3,4-tetrahydropyrimidine-5-carboxamide] | ≤ 5 | ≤ 5 | 10 to 100 |

Further lines, results first:

| IC50 (phosphor-Axl) [nM] | IC50 (c-Mer) [nM] | IC50 (Tyro3) [nM] | Structure (SMILES) |
| --- | --- | --- | --- |
| ≤ 5 | ≤ 5 | > 100 | Cc1c(-c2ccn(C)n2)cc(C(=O)Nc2ccc(-c3cc(C4CCN(C(=O)C(C)C)CC4)n4ncnc(N)c34)cc2)c(=O)n1-c1cccnc1 [Example 135, N-(4-(4-Amino-7-(1-isobutyrylpiperidin-4-yl)pyrrolo[2,1-f][1,2,4]triazin-5-yl)phenyl)-6-methyl-5-(1-methyl-1H-pyrazol-3-yl)-2-oxo-2H-[1,3′-bipyridine]-3-carboxamide] |
| ≤ 5 | ≤ 5 | 10 to 100 | CC(C)C(=O)N1CCC(c2cc(-c3ccc(NC(=O)c4cn(C(C)C)c(=O)n(-c5cccnc5)c4=O)cc3)c3c(N)ncnn23)CC1 [Example 78, N-(4-(4-Amino-7-(1-isobutyrylpiperidin-4-yl)pyrrolo[1,2-f][1,2,4]triazin-5-yl)phenyl)-1-isopropyl-2,4-dioxo-3-(pyridin-3-yl)-1,2,3,4-tetrahydropyrimidine-5-carboxamide] |
| ≤ 5 | ≤ 5 | > 100 | Cc1c(CC#N)cc(C(=O)Nc2ccc(-c3cc(C4CCN(C(=O)C(C)C)CC4)n4ncnc(N)c34)cc2)c(=O)n1-c1ccccn1 [Example 122, N-(4-(4-Amino-7-(1-isobutyrylpiperidin-4-yl)pyrrolo[1,2-f][1,2,4]triazin-5-yl)phenyl)-5-(cyanomethyl)-6-methyl-2-oxo-1-(pyridin-2-yl)-1,2-dihydropyridine-3-carboxamide] |
| ≤ 5 | ≤ 5 | > 100 | Cc1c(Br)cc(C(=O)Nc2ccc(-c3cc(C4CCN(C(=O)C(C)C)CC4)n4ncnc(N)c34)cc2)c(=O)n1-c1cncc(F)c1 [Example 101, N-(4-(4-Amino-7-(1-isobutyrylpiperidin-4-yl)pyrrolo[1,2-f][1,2,4]triazin-5-yl)phenyl)-5-bromo-1-(5-fluoropyridin-3-yl)-6-methyl-2-oxo-1,2-dihydropyridine-3-carboxamide] |
| ≤ 5 | ≤ 5 | 10 to 100 | CC(C)n1cc(C(=O)Nc2ccc(-c3cc(C4CCN(C)CC4)n4ncnc(N)c34)cc2)c(=O)n(-c2ccccc2)c1=O [Example 64, N-(4-(4-Amino-7-(1-methylpiperidin-4-yl)pyrrolo[1,2-f][1,2,4]triazin-5-yl)phenyl)-1-isopropyl-2,4-dioxo-3-phenyl-1,2,3,4-tetrahydropyrimidine-5-carboxamide] |
| ≤ 5 | ≤ 5 | 10 to 100 | CCN(C)C(=O)N1CCC(c2cc(-c3ccc(NC(=O)c4cn(C(C)C)c(=O)n(-c5ccccc5)c4=O)cc3)c3c(N)ncnn23)CC1 [Example 62, N-(4-(4-Amino-7-(1-(ethyl(methyl)carbamoyl)piperidin-4-yl)pyrrolo[1,2-f][1,2,4]triazin-5-yl)phenyl)-1-isopropyl-2,4-dioxo-3-phenyl-1,2,3,4-tetrahydropyrimidine-5-carboxamide] |
| ≤ 5 | ≤ 5 | > 100 | CC(C)C(=O)N1CCC(c2cc(-c3ccc(NC(=O)c4cc(C#C[C@H](C)O)cn(-c5ccccc5)c4=O)cc3)c3c(N)ncnn23)CC1 [Example 120, (S)—N-(4-(4-Amino-7-(1-isobutyrylpiperidin-4-yl)pyrrolo[2,1-f][1,2,4]triazin-5-yl)phenyl)-5-(3-hydroxybut-1-yn-1-yl)-2-oxo-1-phenyl-1,2-dihydropyridine-3-carboxamide] |
| ≤ 5 | ≤ 5 | > 100 | CC(C)C(=O)N1CCC(c2cc(-c3ccc(NC(=O)c4cn(C5CC5)c(=O)n(-c5ccccc5)c4=O)cc3)c3c(N)ncnn23)CC1 [Example 139, N-(4-(4-Amino-7-(1-isobutyrylpiperidin-4-yl)pyrrolo[2,1-f][1,2,4]triazin-5-yl)phenyl)-1-cyclopropyl-2,4-dioxo-3-phenyl-1,2,3,4-tetrahydropyrimidine-5-carboxamide] |
| ≤ 5 | ≤ 5 | 10 to 100 | Cc1c(-c2cscn2)cc(C(=O)Nc2ccc(-c3cc(C4CCN(C(=O)C(C)C)CC4)n4ncnc(N)c34)cc2)c(=O)n1-c1cncc(F)c1 [Example 103, N-(4-(4-Amino-7-(1-isobutyrylpiperidin-4-yl)pyrrolo[2,1-f][1,2,4]triazin-5-yl)phenyl)-5′-fluoro-6-methyl-2-oxo-5-(thiazol-4-yl)-2H-[1,3′-bipyridine]-3-carboxamide] |
